According to ChEMBL document CHEMBL1201862, “PubChem BioAssay data set” (2004):
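Cells were grown in 96-well plates and exposed to each compound for 48 hours at five concentrations; endpoints were interpolated linearly between bracketing concentrations, or set to the highest concentration if not reached. GI50: concentration for 50% inhibition of growth.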 Active and inactive are the calls of the source. Cut-off read from the data, not from the text of the source: active = GI50 up to about 1.1 µM and inactive = higher.

Columns and labels:
Assay in all cases: growth of human tumour cells (NCI), 48 h
SNB-19 = tested on: SNB-19
HCT-116 = tested on: HCT-116
HCC 2998 = tested on: HCC 2998
NCI-H23 = tested on: NCI-H23
NCI/ADR-RES = tested on: NCI/ADR-RES
LOX IMVI = tested on: LOX IMVI
HT-29 = tested on: HT-29
HOP-62 = tested on: HOP-62
HOP-92 = tested on: HOP-92
MOLT-4 = tested on: MOLT-4
U-251 = tested on: U-251
SR = tested on: SR
786-0 = tested on: 786-0
Malme-3M = tested on: Malme-3M
SF-268 = tested on: SF-268
SF-295 = tested on: SF-295
SK-MEL-28 = tested on: SK-MEL-28
HCT-15 = tested on: HCT-15
T47D = tested on: T47D
SF-539 = tested on: SF-539

Structure (SMILES) | GI50 (SNB-19) | GI50 (HCT-116) | GI50 (HCC 2998) | GI50 (NCI-H23) | GI50 (NCI/ADR-RES) | GI50 (LOX IMVI) | GI50 (HT-29) | GI50 (HOP-62) | GI50 (HOP-92) | GI50 (MOLT-4) | GI50 (U-251) | GI50 (SR) | GI50 (786-0) | GI50 (Malme-3M) | GI50 (SF-268) | GI50 (SF-295) | GI50 (SK-MEL-28) | GI50 (HCT-15) [µM] | GI50 (T47D) | GI50 (SF-539)
Nc1cc(C(=O)O)nc(O)n1 | > 100 µM (inactive) | > 100 µM (inactive) | > 100 µM (inactive) | > 100 µM (inactive) | > 100 µM (inactive) | > 100 µM (inactive) | > 100 µM (inactive) | > 100 µM (inactive) | > 100 µM (inactive) | > 100 µM (inactive) | > 100 µM (inactive) | > 100 µM (inactive) | > 100 µM (inactive) | > 100 µM (inactive) | > 100 µM (inactive) | > 100 µM (inactive) | > 100 µM (inactive) | > 100 | – | –
CCCC(=O)OCC1(CO)C/C(=C/CC(C(C)C)C(C)C)C(=O)O1 (stereo not given) | > 100 µM (inactive) | > 100 µM (inactive) | > 100 µM (inactive) | > 100 µM (inactive) | > 100 µM (inactive) | 17.4 µM (inactive) | > 100 µM (inactive) | > 100 µM (inactive) | 97.7 µM (inactive) | – | > 100 µM (inactive) | – | > 100 µM (inactive) | 64.4 µM (inactive) | > 100 µM (inactive) | > 100 µM (inactive) | > 100 µM (inactive) | > 100 | > 100 µM (inactive) | –
COCCOCCOCCC(=O)NC1CC2CCC1(C)C2(C)C (stereo not given) | > 100 µM (inactive) | > 100 µM (inactive) | > 100 µM (inactive) | > 100 µM (inactive) | > 100 µM (inactive) | > 100 µM (inactive) | > 100 µM (inactive) | > 100 µM (inactive) | – | > 100 µM (inactive) | > 100 µM (inactive) | > 100 µM (inactive) | > 100 µM (inactive) | > 100 µM (inactive) | > 100 µM (inactive) | > 100 µM (inactive) | > 100 µM (inactive) | > 100 | – | > 100 µM (inactive)
COc1cc(/C=C(/C#N)C(N)=O)ccc1O | > 100 µM (inactive) | > 100 µM (inactive) | > 60.5 µM (inactive) | > 100 µM (inactive) | > 100 µM (inactive) | > 100 µM (inactive) | > 100 µM (inactive) | > 100 µM (inactive) | > 56.8 µM (inactive) | > 100 µM (inactive) | > 100 µM (inactive) | – | – | 53.6 µM (inactive) | > 100 µM (inactive) | > 100 µM (inactive) | > 100 µM (inactive) | > 100 | – | > 100 µM (inactive)
S=C(c1c[nH]c2ccccc12)N1CCCCC1 | > 100 µM (inactive) | 95.1 µM (inactive) | – | > 100 µM (inactive) | 66.5 µM (inactive) | > 100 µM (inactive) | > 100 µM (inactive) | > 100 µM (inactive) | – | 58.1 µM (inactive) | 64.9 µM (inactive) | > 100 µM (inactive) | > 100 µM (inactive) | > 100 µM (inactive) | > 100 µM (inactive) | 62.1 µM (inactive) | > 100 µM (inactive) | 82.2 | – | > 100 µM (inactive)
CCOC(=O)c1c[nH]c(C(=O)C=[N+]=[N-])c1C1CCN(CC)C1=S (stereo not given) | > 100 µM (inactive) | > 100 µM (inactive) | > 100 µM (inactive) | 99.8 µM (inactive) | > 100 µM (inactive) | – | > 100 µM (inactive) | > 100 µM (inactive) | > 100 µM (inactive) | > 100 µM (inactive) | > 100 µM (inactive) | – | > 100 µM (inactive) | > 100 µM (inactive) | > 100 µM (inactive) | > 100 µM (inactive) | > 100 µM (inactive) | > 100 | > 100 µM (inactive) | –
C/C(Cc1ccc2c(c1)OCO2)=N\NC(=O)C(C)Sc1nnc(SC(C)C(=O)N/N=C(\C)Cc2ccc3c(c2)OCO3)s1 (stereo not given) | > 100 µM (inactive) | > 100 µM (inactive) | > 100 µM (inactive) | > 100 µM (inactive) | > 100 µM (inactive) | > 100 µM (inactive) | > 100 µM (inactive) | > 100 µM (inactive) | 61.1 µM (inactive) | 27.7 µM (inactive) | > 100 µM (inactive) | – | > 100 µM (inactive) | > 100 µM (inactive) | > 100 µM (inactive) | > 100 µM (inactive) | > 100 µM (inactive) | > 100 | – | –
O=C(O)c1ccc(/C=N\N(CCO)C2=NCCN2)cc1 | > 100 µM (inactive) | > 100 µM (inactive) | > 100 µM (inactive) | > 100 µM (inactive) | – | > 100 µM (inactive) | > 100 µM (inactive) | > 100 µM (inactive) | > 100 µM (inactive) | > 100 µM (inactive) | > 100 µM (inactive) | > 100 µM (inactive) | > 100 µM (inactive) | > 100 µM (inactive) | > 100 µM (inactive) | > 100 µM (inactive) | > 100 µM (inactive) | > 100 | > 100 µM (inactive) | > 100 µM (inactive)
C/C(=C1/N=C(c2ccccc2)OC1=O)c1ccc(C)cc1 | > 100 µM (inactive) | > 100 µM (inactive) | > 100 µM (inactive) | > 100 µM (inactive) | – | > 100 µM (inactive) | > 100 µM (inactive) | > 100 µM (inactive) | > 100 µM (inactive) | > 100 µM (inactive) | > 100 µM (inactive) | > 100 µM (inactive) | > 100 µM (inactive) | > 100 µM (inactive) | > 100 µM (inactive) | > 100 µM (inactive) | > 100 µM (inactive) | > 100 | > 100 µM (inactive) | > 100 µM (inactive)
N/C(=N\O)N/N=C\c1c(O)cc(O)cc1O | 65.9 µM (inactive) | > 94.2 µM (inactive) | 73.8 µM (inactive) | > 75 µM (inactive) | 79.6 µM (inactive) | 60.8 µM (inactive) | 93.8 µM (inactive) | > 87.9 µM (inactive) | 54.8 µM (inactive) | 39.8 µM (inactive) | 41.6 µM (inactive) | – | – | > 100 µM (inactive) | > 100 µM (inactive) | > 46.8 µM (inactive) | > 100 µM (inactive) | 63.4 | – | > 100 µM (inactive)
CC1=NC2=Nc3nc(C)cc[n+]3CN2C=C1 | > 100 µM (inactive) | 38.9 µM (inactive) | 58.2 µM (inactive) | > 100 µM (inactive) | > 100 µM (inactive) | 29.8 µM (inactive) | 31.8 µM (inactive) | 89.3 µM (inactive) | 95.7 µM (inactive) | – | > 100 µM (inactive) | – | 48.3 µM (inactive) | 49.5 µM (inactive) | > 100 µM (inactive) | 85.5 µM (inactive) | 53.1 µM (inactive) | 88.5 | 70 µM (inactive) | > 100 µM (inactive)
O=C1c2ccccc2OCC1/C=N/O (stereo not given) | – | > 100 µM (inactive) | > 100 µM (inactive) | > 100 µM (inactive) | > 100 µM (inactive) | 31.3 µM (inactive) | 62.7 µM (inactive) | > 100 µM (inactive) | > 55.1 µM (inactive) | > 100 µM (inactive) | > 100 µM (inactive) | – | – | > 100 µM (inactive) | > 58.9 µM (inactive) | > 100 µM (inactive) | 51.6 µM (inactive) | 63.7 | – | 76 µM (inactive)
COC(=O)CCC(NC(=O)C(C)NC(=O)COC1C(O)C(OC(=O)CCNc2c3ccccc3nc3cccc([N+](=O)[O-])c23)OC(OCc2ccccc2)C1NC(C)=O)C(N)=O (stereo not given) | 5.36 µM (inactive) | 1.64 µM (inactive) | 2.76 µM (inactive) | > 10 µM (inactive) | – | > 10 µM (inactive) | 2.62 µM (inactive) | 3.7 µM (inactive) | 4.43 µM (inactive) | 3 µM (inactive) | 9.98 µM (inactive) | – | 3.56 µM (inactive) | 2.22 µM (inactive) | 7.26 µM (inactive) | > 10 µM (inactive) | – | 3.21 | > 10 µM (inactive) | > 10 µM (inactive)
O=c1c2nn[nH]c2nc2n1CC(c1ccccc1)S2 (stereo not given) | > 100 µM (inactive) | > 100 µM (inactive) | > 100 µM (inactive) | > 100 µM (inactive) | > 100 µM (inactive) | > 100 µM (inactive) | – | > 100 µM (inactive) | – | > 100 µM (inactive) | > 100 µM (inactive) | – | > 100 µM (inactive) | > 100 µM (inactive) | > 100 µM (inactive) | > 100 µM (inactive) | > 100 µM (inactive) | > 100 | > 100 µM (inactive) | > 100 µM (inactive)
CCNc1cc2oc(=O)cc(C(F)(F)F)c2cc1C | > 100 µM (inactive) | > 100 µM (inactive) | > 100 µM (inactive) | > 100 µM (inactive) | > 100 µM (inactive) | > 100 µM (inactive) | > 100 µM (inactive) | > 100 µM (inactive) | 64.4 µM (inactive) | > 100 µM (inactive) | > 100 µM (inactive) | – | > 100 µM (inactive) | – | > 100 µM (inactive) | > 100 µM (inactive) | > 100 µM (inactive) | > 100 | > 100 µM (inactive) | > 100 µM (inactive)
C[C@H](CCC(=O)O)[C@H]1CC[C@H]2[C@@H]3[C@H](O)[C@H](O)[C@@H]4C[C@H](O)CC[C@]4(C)[C@H]3CC[C@]12C [HYOCHOLIC ACID] | > 100 µM (inactive) | > 100 µM (inactive) | > 100 µM (inactive) | > 100 µM (inactive) | > 100 µM (inactive) | 30.2 µM (inactive) | > 100 µM (inactive) | > 100 µM (inactive) | > 100 µM (inactive) | > 100 µM (inactive) | > 100 µM (inactive) | – | > 100 µM (inactive) | > 100 µM (inactive) | > 100 µM (inactive) | – | > 100 µM (inactive) | > 100 | > 100 µM (inactive) | > 100 µM (inactive)
